Data as given in ChEMBL document CHEMBL3046151, “Assessment of antithyroid activity of 2,8-disulfanyl-1,9-dihydro-6H-purin-6-one in vitro and in vivo” (2012).
Calls of active or inactive are those of the source. The rule behind the calls is not given here.

What was measured:
[1] = Binding affinity to iodine assessed as compound-iodine complex formation by spectrophotometry
[2] = test system: Rattus norvegicus; assay: Antithyroid activity in Rattus norvegicus Wistar (rat) assessed as cylindrical follicles in thyroid gland at 20 mg/kg, ip for 21 days by microscopic analysis; format: functional, organism-based; set-up: dose 20 mg/kg
[3] = test system: Rattus norvegicus; assay: Antithyroid activity in Rattus norvegicus Wistar (rat) assessed as little colloid material in epithelium of thyroid gland at 20 mg/kg, ip for 21 days by microscopic analysis; format: functional, organism-based; set-up: dose 20 mg/kg
[4] = test system: Rattus norvegicus; assay: Antithyroid activity in Rattus norvegicus Wistar (rat) assessed as thyroid stimulating hormone level in serum at 20 mg/kg, ip for 21 days measured after 21 days by ELISA (reference value: 1.83 +/- 0.307 microi.u/ml); format: functional; settings: route intraperitoneal
[5] = test system: Rattus norvegicus; assay: Antithyroid activity in Rattus norvegicus Wistar (rat) assessed as free thyroxin(T4) level in serum at 20 mg/kg, ip for 21 days measured after 21 days by radioimmunoassay (reference value: 33.171 +/- 0.474 pmol/l); format: functional; settings: route intraperitoneal
[6] = test system: Rattus norvegicus; assay: Antithyroid activity in Rattus norvegicus Wistar (rat) assessed as free triiodothyronine(T3) level in serum at 20 mg/kg, ip for 21 days measured after 21 days by radioimmunoassay (reference value: 8.007 +/- 0.167 pmol/l); format: functional; settings: route intraperitoneal

| Structure (SMILES) | Activity [1] | Activity [2] | Activity [3] | Activity [4] | Activity [5] | Activity [6] |
| --- | --- | --- | --- | --- | --- | --- |
| Oc1[nH]c(S)nc2nc(S)nc1-2 | Active | Active | Active | 8.126 uIU/ml | 20.086 pmol/L | 4.418 pmol/L |
| Cn1ccnc1S [METHIMAZOLE] | – | Active | Active | 6.014 uIU/ml | 25.096 pmol/L | 5.162 pmol/L |
